Data: US20190069576A1, “Solid Form Nutrient Compositions” (Railsplitter Feed Technology, Inc., priority 2016, published 2019)

System: infant pigs
Assay: Hemoglobin measurement of pigs treated with granular materials or iron dextran injections
Assay type: in vivo, pig
Procedure: In Example 6, four litters of pigs were provided granular product (sample numbers 272 and 280). These litters were offered these granular products ad litum from birth to 21 days of birth. Two litters were not offered granular material, but were instead injected with iron dextran on day 3 after birth with 1 cc of 200 mg of iron dextran. Two other litters, also not offered granular material, were injected twice, once on day 3, and once on day 10 after birth. Each injection was a 1 cc injection of 200 mg of iron dextran.
The National Research Council in the Nutrient Requirement of Swine publication recommends that levels of iron dextran providing more than 200 mg per pig in one injection be avoided. Many producers provide a second injection to minimize the deficiency which doubles the cost of preventing anemia in young pigs, and increases the probability of spreading pathogens with needles.
Hemoglobin analysis is an excellent way to quantitate the adequacy of iron for the pig but the treatment differences are obvious by just viewing the litters.
A striking difference between healthy hemoglobin adequate pigs and anemic pigs is the color of the skin. This is most obvious in white pigs, and most pigs in US have some white color in their breed lineage. Pigs with hemoglobin values above 10 gm per 100 ml. have extremely bright, pink skin, while anemic pigs have very pale almost white color of the skin.

[1] = 1 injection, day 3, 1 cc of 200 mg, first litter (12 pigs)
[2] = 1 injection, second litter (10 pigs)
[3] = 2 injections, day 3 and day 10, each 1 cc of 200 mg, first litter (7 pigs)
[4] = 2 injections, second litter (11 pigs)

For iron dextran, the “Pigs <10 gm % (hemoglobin)” value [1] was 10, the “Pigs >10 gm % (hemoglobin)” value [1] was 2 and the “Pigs <10 gm % (hemoglobin)” value [2] was 4. For the same substance, the “Pigs >10 gm % (hemoglobin)” value [2] was 6, the “% with adequate Hemoglobin” value (1 injection, total of 22 pigs) was 36% and the “Pigs <10 gm % (hemoglobin)” value (1 injection, total of 22 pigs) was 14. For the same substance, the “Pigs >10 gm % (hemoglobin)” value (1 injection, total of 22 pigs) was 8, the “Pigs <10 gm % (hemoglobin)” value [3] was 2 and the “Pigs >10 gm % (hemoglobin)” value [3] was 5. For the same substance, the “Pigs <10 gm % (hemoglobin)” value [4] was 2, the “Pigs >10 gm % (hemoglobin)” value [4] was 9 and the “% with adequate Hemoglobin” value (2 injections, total of 18 pigs) was 77%. The “Pigs <10 gm % (hemoglobin)” value (2 injections, total of 18 pigs) was 4 and the “Pigs >10 gm % (hemoglobin)” value (2 injections, total of 18 pigs) was 14.
